Results: ChEMBL document CHEMBL1201862, “PubChem BioAssay data set” (2004)
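Results reflect a 48-hour exposure of cells in 96-well plates to compound at five concentrations. The concentration for 50% growth inhibition is given as GI50.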 Active and inactive are the calls of the source. Rule as the data show it: active = GI50 up to about 1.1 µM and inactive = higher.

What was measured:
Experiment in all cases: DTP human tumour cell line panel, 48 h
DLD-1 = system: DLD-1
DMS-273 = system: DMS-273
KM-20L2 = system: KM-20L2
LXFL 529 = system: LXFL 529
M19-MEL = system: M19-MEL
SNB-78 = system: SNB-78
XF498 = system: XF498
HOP-18 = system: HOP-18
RXF 631 = system: RXF 631

Measured: GI50

CCC(C)(C)NS(=O)(=O)c1ccccc1
inactive: DLD-1 > 100 µM | DMS-273 > 100 µM | KM-20L2 > 100 µM | LXFL 529 > 100 µM | M19-MEL > 100 µM | SNB-78 > 100 µM | XF498 > 100 µM

N#C/C(c1nc2ccccc2[nH]1)=c1\s/c(=C/c2ccccc2)c(=O)n1-c1ccccc1
inactive: DLD-1 > 100 µM | DMS-273 > 100 µM | KM-20L2 > 100 µM | LXFL 529 96.2 µM | M19-MEL > 100 µM | XF498 60.8 µM

C=C1CC2(OC1=O)c1ccccc1CCc1ccccc12
inactive: DLD-1 1.83 µM | DMS-273 3.49 µM | HOP-18 1.97 µM | KM-20L2 4.06 µM | LXFL 529 1.7 µM | M19-MEL 1.83 µM | SNB-78 2.18 µM | XF498 2.41 µM

CS(=O)(=O)Nc1ccc(Nc2c3ccccc3nc3ccccc23)cc1
inactive: DLD-1 4.15 µM | HOP-18 2.82 µM | KM-20L2 3.06 µM | LXFL 529 3.43 µM | M19-MEL 2.32 µM | RXF 631 1.77 µM | SNB-78 7.83 µM | XF498 2.6 µM
active: DMS-273 0.658 µM

CN(C)C(=S)/N=c1\ss/c(=N/c2ccccc2)n1C
inactive: DLD-1 > 100 µM | DMS-273 > 100 µM | HOP-18 > 100 µM | KM-20L2 > 100 µM | LXFL 529 > 100 µM | M19-MEL > 100 µM | RXF 631 44.6 µM | SNB-78 32.4 µM

COc1ccc(CNc2cc(OC)cc(OC)c2)cc1
inactive: LXFL 529 49.3 µM | M19-MEL 72.3 µM | SNB-78 29.6 µM | XF498 63.5 µM

CCCCCCCCCCNC(=S)OCCCC
inactive: DLD-1 27.2 µM | DMS-273 20.3 µM | HOP-18 26.9 µM | KM-20L2 19.1 µM | LXFL 529 22.9 µM | M19-MEL 35.3 µM | RXF 631 26.4 µM | SNB-78 35.3 µM | XF498 20.1 µM

CSC1(C)CC2C(CC1N1CCOCC1)C2(C)C (configuration not stated)
inactive: DLD-1 > 100 µM | DMS-273 > 100 µM | HOP-18 > 100 µM | LXFL 529 > 100 µM | M19-MEL > 100 µM | SNB-78 > 100 µM | XF498 > 100 µM

CC(=O)Oc1cc(C)c2c(c1OC(C)=O)CC1(O2)[C@@H](C)CCC2[C@@]3(C)CC[C@H](OC(C)=O)C(C)(C)C3CC[C@]21C (some centres not stated)
inactive: DLD-1 3.42 µM | DMS-273 2.25 µM | HOP-18 2.64 µM | KM-20L2 14.1 µM | LXFL 529 4.62 µM | M19-MEL 2.02 µM | RXF 631 5.4 µM | SNB-78 2.24 µM

CC1(C)C(=O)C(C)(C)C1=NN
inactive: DLD-1 > 100 µM | DMS-273 > 100 µM | KM-20L2 > 100 µM | LXFL 529 > 100 µM | M19-MEL > 100 µM | SNB-78 > 100 µM | XF498 > 100 µM

O=c1c(O)cccn1C1OC(CO)C(O)C1O (configuration not stated)
inactive: DLD-1 > 100 µM | DMS-273 > 100 µM | HOP-18 > 100 µM | KM-20L2 > 100 µM | LXFL 529 > 100 µM | RXF 631 > 100 µM | SNB-78 > 100 µM

CC(C)CCC[C@@H](C)C1CCC2[C@@H]3CC=C4C[C@@H](C(=O)NCCN(C)C)CC[C@]4(C)C3CC[C@@]21C (some centres not stated)
inactive: DLD-1 36.1 µM | DMS-273 24.4 µM | HOP-18 22.4 µM | KM-20L2 83 µM | LXFL 529 13.9 µM | M19-MEL 19.7 µM | SNB-78 > 100 µM | XF498 8.11 µM

COc1ccc(C[C@]23CCC(=O)N2CCc2cc(OC)c(O)cc23)cc1O
inactive: DMS-273 > 100 µM | HOP-18 > 100 µM | KM-20L2 > 100 µM | LXFL 529 > 100 µM | M19-MEL > 100 µM | RXF 631 > 100 µM | SNB-78 > 100 µM

N#C/N=C(\NCCc1c[nH]c2ccccc12)NCc1ccccc1
inactive: DLD-1 94.8 µM | DMS-273 69.2 µM | KM-20L2 16.3 µM | LXFL 529 48.2 µM | M19-MEL 81.3 µM | SNB-78 > 100 µM | XF498 29.6 µM
